Consider two molecules from PMC12977544, “Phenotypic high-throughput screening identifies modulators of gut microbial choline metabolism” (mBio, 2026).

The test system of one assay is E. coli MS 200-1. In words: TMA inhibition in bacterial whole cells (LC–MS/MS of d9-TMA from d9-choline). It counts as cell-based, Escherichia coli MS 200-1. The settings on record: Escherichia coli, MS2001, 1.25 h; 1 mM d9-choline in PBS, 75 min, 37°C, anaerobic.
Assay [1] relates to panel of commensal bacterial strains. In words: MIC against panel of nine gut commensal bacteria. The settings on record: read-out: MICs against gut commensal panel.

SMILES strings stand for the structures. Bounds are passed on as bounds.

One may read the EC50 as the concentration giving half of the maximal effect. A low value points to a more potent agent. `Cc1ccc(-c2cc(C(=O)NCCCN3CCc4ccccc4C3)c(C)[nH]2)cc1C` [Compound 5]: the half-maximal effective concentration (EC50) with E. coli MS 200-1 amounted to 12 µM.

Take `Cc1ccc(-c2cc(C(=O)NCCCCCN3CCCCCC3)c(C)[nH]2)cc1C` [Compound 45]: the MIC in assay [1] is greater than 200 µM.
